According to patent US8263610B2, “Substituted imidazolyl-5,6-dihydrobenzo[N]isoquinoline compounds” (ArQule, Inc., priority 2008, dated 2012):
pIC50: −log10 of the molar value.

Tests used:
FGFR2(N549H) = target: T1, FGFR2(N549H) (Homo sapiens, UniProt P21802, N549H); assay: fluorescent ELISA assay for inhibitors of FGFR2 kinase; type: biochemical; conditions: 37 μM Pyk2 substrate, 12.5 μM ATP, 0.5 μM FGFR2 enzyme, 60 minutes
T1 construct: purchased Millipore 14-742
Procedure: The enzymatic assays described herein are conducted according to the following procedures from commercially available reagents. In one, non limiting, example, a fluorescent ELISA assay is used to identify and characterize inhibitors of FGFR2 kinase as described herein. This heterogeneous assay utilizes a biotinylated peptide with a tyrosine motif as a substrate and an anti-phospho-tyrosine antibody to measure phosphorylation of the substrate. The reaction is initiated by adding the test compound, 37 μM Pyk2 substrate (Midwest Biotech, Cat. #MBT2383), 12.5 μM ATP (Roche, Cat. #11 140 965 001) and 0.5 μM FGFR2 enzyme (Millipore, Cat. #14-742) sequentially to a non-binding polypropylene V-well plate. All reagents are in an assay buffer consisting of: 50 mM Tris-HCL, 0.02 mg/ml BSA, 10 mM MgCl2, 0.1 mM Na3VO4, 1 mM EGTA, 75 μM ATP, 0.01% NP-40, 2 mM DTT and 10% glycerol. The reaction is incubated for 60 minutes. As the reaction proceeds, FGFR2 phosphorylates tyrosines in the peptide. The reaction mixture is then moved to a blocked streptavidin-coated Nunc Maxisorb plate (coated with 100 ng streptavidin from Pierce (Cat. #15-124) per well), allowing for the capture of the biotinylated peptide. Peptides are captured for 30 minutes at room temperature, the phosphorylation of peptides continues during this phase. The reaction is stopped by washing the streptavidin-coated plate 6 times with TBST. Phosphorylated peptide is detected by adding anti-phospho-tyrosine antibody (Cell Signaling, Cat. #9411, diluted 1:3000) to the streptavidin-coated plate. Unbound anti-phospho-tyrosine antibody is removed by washing the streptavidin-coated plate 6 times with TBST. Secondary detection is performed using alkaline phosphatase tagged goat anti-mouse antibody (Pierce, Cat. #31320, diluted 1:4000) for one hour. Unbound secondary antibody is removed by washing the streptavidin-coated plate 6 times with TBST. The fluorescent readout is initiated by adding to the streptavidin-coated plate Promega Attophos substrate (Promega, Cat. #S1000, dilution=6 mg/10 ml), which, when dephosphorylated by alkaline phosphatase, emits a fluorescent signal of 595 nm in wavelength when excited by a signal of 400 nm in wavelength. The reading of the 595 nm signal is done on the Perkin Elmer Envision system. Compounds which prevent FGFR2 from phosphorylating the peptide result in a lower fluorescent signal. The 595 nm fluorescent signal is directly proportional to the activity of FGFR2. Thus, the inhibition of FGFR2 by compounds is monitored by the decrease in the 595 nm fluorescent signal.

DLD-1 cells = assay: MTS assay, inhibition of cell growth; type: cell-based; conditions: Homo sapiens, compound at 10 μM, 72 hours
Procedure: (§1) MDA-MB-231, DLD-1, Kato III NCI-H1299, PACA-2 cells, were maintained at 37° C., 5% CO2 in DMEM media supplemented with 10% fetal bovine serum, penicillin/streptomycin and fungizone (Invitrogen). Cells were seeded into 96-well tissue culture plates at 3000 per well and cultured at 37° C. for 18 hours. Test compounds were dissolved and diluted to 300× in DMSO then further diluted 1:40 in DMEM before addition to cells (1:7.5 dilution). Cells were incubated with test compounds for 72 hours followed by incubation with tetrazolium compound (3-(4,5-dimethylthiazol-2-yl)-5-(3-carboxymethoxyphenyl)-2-(4-sulfophenyl)-2H-tetrazolium, inner salt; MTS) and the electron coupling reagent, phenazine methosulfate (PMS) for 4 hours. […] The ability of compounds to inhibit cell growth in this assay is correlated with the reduction of dehydrogenase enzyme activity found in metabolically active cells. The measurement of the absorbance of the formazan was assessed using an ENVISION™ (Perkin Elmer) microplate reader at 492 nm.

MDA-MB-231 cells = assay: MTS assay, inhibition of cell growth; type: cell-based; conditions: Homo sapiens, compound at 10 μM, 72 hours
Procedure: as §1

Kato III cells = assay: MTS assay, inhibition of cell growth; type: cell-based; conditions: Homo sapiens, compound at 10 μM, 72 hours
Procedure: as §1

PACA-2 cells = assay: MTS assay, inhibition of cell growth; type: cell-based; conditions: compound at 10 μM, 72 hours
Procedure: as §1

NCI-H1299 cells = assay: MTS assay, inhibition of cell growth; type: cell-based; conditions: Homo sapiens, compound at 10 μM, 72 hours
Procedure: as §1

T1 sequence (P21802 22-821 N549H): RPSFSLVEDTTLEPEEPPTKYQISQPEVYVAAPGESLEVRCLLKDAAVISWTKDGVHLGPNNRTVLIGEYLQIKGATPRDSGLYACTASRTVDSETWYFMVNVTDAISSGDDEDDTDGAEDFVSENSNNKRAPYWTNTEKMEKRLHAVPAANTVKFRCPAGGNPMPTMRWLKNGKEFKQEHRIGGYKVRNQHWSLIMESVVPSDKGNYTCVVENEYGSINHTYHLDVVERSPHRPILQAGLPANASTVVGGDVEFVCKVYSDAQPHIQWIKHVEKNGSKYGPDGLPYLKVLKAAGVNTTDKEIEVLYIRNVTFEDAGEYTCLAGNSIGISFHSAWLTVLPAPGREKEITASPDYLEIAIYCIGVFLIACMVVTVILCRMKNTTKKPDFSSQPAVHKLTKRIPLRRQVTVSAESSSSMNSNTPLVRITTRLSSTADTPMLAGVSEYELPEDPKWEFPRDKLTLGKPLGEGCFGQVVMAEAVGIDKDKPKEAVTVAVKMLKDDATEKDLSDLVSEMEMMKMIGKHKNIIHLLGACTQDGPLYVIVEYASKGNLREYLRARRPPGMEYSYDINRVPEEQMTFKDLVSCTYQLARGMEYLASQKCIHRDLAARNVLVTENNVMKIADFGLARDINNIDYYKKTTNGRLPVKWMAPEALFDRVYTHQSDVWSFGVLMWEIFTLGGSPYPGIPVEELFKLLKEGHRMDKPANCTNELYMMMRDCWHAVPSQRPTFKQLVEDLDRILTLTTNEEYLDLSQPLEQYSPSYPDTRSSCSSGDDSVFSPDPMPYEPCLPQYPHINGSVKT

SMILES | pIC50 (FGFR2(N549H)) | inhibition at 10 µM (DLD-1 cells) | inhibition at 10 µM (MDA-MB-231 cells) | inhibition at 10 µM (Kato III cells) | inhibition at 10 µM (PACA-2 cells) | inhibition at 10 µM (NCI-H1299 cells)
Clc1ccc(C2Cc3cnc4[nH]ncc4c3-c3ccccc32)c(Cl)c1 (stereo not shown) [7-(2,4-dichlorophenyl)-6,7-dihydro-3H-benzo[f]pyrazolo[3,4-c]isoquinoline] | 5.60 | – | – | – | – | –
Clc1ccc(C2Cc3cnc4[nH]ncc4c3-c3ccccc32)cc1Cl (stereo not shown) [7-(3,4-dichlorophenyl)-6,7-dihydro-3H-benzo[f]pyrazolo[3,4-c]isoquinoline] | 4.68 | – | – | – | – | –
Fc1ccc(C2Cc3cnc4[nH]ncc4c3-c3ccccc32)cc1 (stereo not shown) [7-(4-fluorophenyl)-6,7-dihydro-3H-benzo[f]pyrazolo[3,4-c]isoquinoline] | 5.39 | – | – | – | – | –
c1ccc(C2Cc3cnc4[nH]ncc4c3-c3ccccc32)cc1 (stereo not shown) [7-phenyl-6,7-dihydro-3H-benzo[f]pyrazolo[3,4-c]isoquinoline] | 6.65 | – | – | – | – | –
Cc1cc(C)c2c(c1)-c1c(cnc3[nH]ncc13)CC2 [8,10-dimethyl-6,7-dihydro-3H-benzo[f]pyrazolo[3,4-c]isoquinoline] | 5.17 | – | – | – | – | –
FC(F)(F)c1cccc(CNc2ncc3c(n2)CCc2cnc4[nH]ncc4c2-3)c1 [N-[3-(trifluoromethyl)benzyl]-6,7-dihydro-3H-pyrazolo[4′,3′:5,6]pyrido[4,3-f]quinazolin-9-amine] | – | 75 to 100% | 75 to 100% | 75 to 100% | 75 to 100% | 75 to 100%
CN(C)c1ccc(NC(=O)N2CCc3c(cnc4[nH]ncc34)C2)cc1 [N-[4-(dimethylamino)phenyl]-3,6,8,9-tetrahydro-7H-pyrazolo[3,4-c][2,7]naphthyridine-7-carboxamide] | – | 75 to 100% | 75 to 100% | 75 to 100% | 75 to 100% | 75 to 100%
O=C(Nc1ccccc1)N1CCc2c(cnc3[nH]nc(-c4cccc(C(F)(F)F)c4)c23)C1 [N-phenyl-1-[3-(trifluoromethyl)phenyl]-3,6,8,9-tetrahydro-7H-pyrazolo[3,4-c][2,7]naphthyridine-7-carboxamide] | – | 75 to 100% | 75 to 100% | 75 to 100% | 75 to 100% | 75 to 100%
CC(C)(C)NC1CCc2c(cnc3[nH]ncc23)C1 (stereo not shown) [N-tert-butyl-6,7,8,9-tetrahydro-3H-pyrazolo[3,4-c]isoquinolin-7-amine] | – | 75 to 100% | 75 to 100% | 75 to 100% | 75 to 100% | 75 to 100%
O=C(NCCN1CCOCC1)c1cccc(NC(=O)N2CCc3c(cnc4[nH]ncc34)C2)c1 [N-{3-[(2-morpholin-4-ylethyl)carbamoyl]phenyl}-3,6,8,9-tetrahydro-7H-pyrazolo[3,4-c][2,7]napthyridine-7-carboxamide] | – | 75 to 100% | 75 to 100% | 75 to 100% | 75 to 100% | 75 to 100%
Fc1ccc(C2Cc3cnc4[nH]ncc4c3-c3ccccc32)cc1 (stereo not shown) [drawing 558, 7-(4-fluorophenyl)-6,7-dihydro-3H-benzo[f]pyrazolo[3,4-c]isoquinoline] | – | 75 to 100% | 75 to 100% | 50 to 74% | 75 to 100% | 25 to 49%
O=S(=O)(NC1CCc2c(cnc3[nH]ncc23)C1)c1ccccc1 (stereo not shown) [drawing 563, N-(6,7,8,9-tetrahydro-3H-pyrazolo[3,4-c]isoquinolin-7-yl)benzenesulfonamide] | – | 75 to 100% | 75 to 100% | 75 to 100% | 75 to 100% | 25 to 49%
CC(C)(C)OC(=O)N1CCc2c(cnc3[nH]ncc23)C1 [drawing 579, tert-butyl 3,6,8,9-tetrahydro-7H-pyrazolo[3,4-c][2,7]naphthyridine-7-carboxylate] | – | 75 to 100% | 75 to 100% | 75 to 100% | 75 to 100% | 75 to 100%
Cc1nc(-c2cccc(NC(=O)N3CCc4c(cnc5[nH]nc(Br)c45)C3)c2)cs1 [drawing 580, 1-bromo-N-[3-(2-methyl-1,3-thiazol-4-yl)phenyl]-3,6,8,9-tetrahydro-7H-pyrazolo[3,4-c][2,7]naphthyridine-7-carboxamide] | – | 75 to 100% | < 24% | 75 to 100% | 25 to 49% | 50 to 74%
O=C(c1ccccc1)c1c[nH]c2ncnc(N3CCc4c(cnc5[nH]nc(Br)c45)C3)c12 [drawing 582] | – | 50 to 74% | 50 to 74% | 75 to 100% | 75 to 100% | 75 to 100%
CC(C)(C)OC(=O)N1CCc2c(cnc3[nH]nc(Br)c23)C1 [drawing 588, tert-butyl 1-bromo-3,6,8,9-tetrahydro-7H-pyrazolo[3,4-c][2,7]naphthyridine--7-carboxylate] | – | 75 to 100% | 75 to 100% | 75 to 100% | 75 to 100% | 75 to 100%
CCOC(=O)CNC(=O)N1CCc2c(cnc3[nH]ncc23)C1 [ethyl N-(3,6,8,9-tetrahydro-7H-pyrazolo[3,4-c][2,7]naphthyridin-7-ylcarbonyl)glycinate] | – | 75 to 100% | 75 to 100% | 75 to 100% | 75 to 100% | 75 to 100%
CC(C)(C)OC(=O)NCc1cccc(-c2n[nH]c3ncc4c(c23)CCN(C(=O)OC(C)(C)C)C4)c1 [tert-butyl 1-(3-{[(tert-butoxycarbonyl)amino]methyl}phenyl)-3,6,8,9-tetrahydro-7H-pyrazolo[3,4-c][2,7]naphthyridine--7-carboxylate] | – | 75 to 100% | 75 to 100% | 75 to 100% | 75 to 100% | 50 to 74%
